How the values were obtained:
[1] = biological target: T1, Dihydropteroate synthase (Bacillus anthracis) (UniProt Q81VW8); experiment: Inhibition of Bacillus anthracis DHPS at 200 uM after 10 mins
T1 sequence (whole entry): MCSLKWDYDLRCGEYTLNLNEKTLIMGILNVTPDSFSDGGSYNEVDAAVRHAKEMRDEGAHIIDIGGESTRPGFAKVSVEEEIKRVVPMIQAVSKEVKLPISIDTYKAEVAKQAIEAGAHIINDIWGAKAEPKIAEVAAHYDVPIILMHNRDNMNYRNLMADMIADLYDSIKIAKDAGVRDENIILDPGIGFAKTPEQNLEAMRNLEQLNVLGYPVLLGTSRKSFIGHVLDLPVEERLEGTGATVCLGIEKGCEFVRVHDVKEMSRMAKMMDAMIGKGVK

[2] = biological target: T1, Dihydropteroate synthase (Bacillus anthracis); experiment: Inhibition of Bacillus anthracis DHPS at 200 uM

| SMILES | inhibition [1] [%] | inhibition [2] [%] |
| --- | --- | --- |
| Nc1nc2c(c(=O)[nH]1)C[C@@H](N(CCCP(=O)(O)O)Cc1ccc(C(=O)O)cc1)CN2 | 6.3 | 3.9 |
| Nc1nc2c(c(=O)[nH]1)CC(N(CCP(=O)(O)O)Cc1ccc(C(=O)O)cc1)CN2 (stereo not drawn) | 5.7 | 3.6 |
| Nc1nc2ncc(N(CCCP(=O)(O)O)Cc3ccc(C(=O)O)cc3)cc2c(=O)[nH]1 | 44.3 | 32.9 |
| Nc1nc2ncc(N(CCP(=O)(O)O)Cc3ccc(C(=O)O)cc3)cc2c(=O)[nH]1 | 30.5 | 16.3 |

— ChEMBL document CHEMBL1667794, “Synthesis of bi-substrate state mimics of dihydropteroate synthase as potential inhibitors and molecular probes” (Bioorg Med Chem, 2011)
